The values that follow come from PubChem BioAssay AID720666 (NMMLSC, 2013).

Structures are written as SMILES. Active and inactive are the calls of the source.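 The calls were made as follows: active = over 50% inhibition of PKC substrate or ERK kinase phosphorylation; inactive = the rest.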

By inhibition is commonly meant the relative decrease from the control value, in per cent.

The subject of the test is TALL-104 cells, PKC substrate phosphorylation, flow cytometry. Put plainly: inhibitors of PKC substrate phosphorylation, late-stage follow-up, mechanism study for lytic granule exocytosis inhibitor project, TALL-104 cells, flow cytometry, CherryPick01 (AID 720666). The settings on record: at 30 µM; active compounds read high.
Regarding `CC1COCC(C)N1C1=C(Cl)C(=O)c2ccccc2C1=O` (configuration not stated), the inhibition is -212% (inactive). `COc1ccc(-c2cc(NC=O)c3ncc(-c4cccc(OC)c4)n3c2)cc1`: the inhibition is -43.6% (inactive). Turning to `Cc1ccc(S(=O)(=O)n2ccc3c(OCCOCCNCc4ccc(F)cc4)cccc32)cc1`, the inhibition was -25.9% (inactive). With `O=C(Cn1sc2ccccc2c1=O)Nc1ccc(F)cc1` the figure was -10.3% (inactive); with `N#Cc1c(Nc2ccccc2Cl)s[nH]c1=O`, -74.8% (inactive).

`O=c1c2ccc(F)cc2sn1-c1ccccc1`: the inhibition was -40.1% (inactive).

For `COC(=O)c1c(NC(=O)c2nc3ccccc3s2)sc2c1CC(C)(C)NC2(C)C`, the inhibition was -30.7% (inactive).

In the case of `COc1ccc(N2C(=O)CC(Sc3nnc(-c4ccccc4)o3)C2=O)cc1` (configuration not stated), the inhibition is 1.3% (inactive). On to `COc1ccc(-c2cc(NC=O)c3ncc(-c4ccccc4)n3c2)cc1OC`, for which the inhibition was -38.6% (inactive). As to `O=C(CN1C(=O)/C(=C\c2cccc(Br)c2)Oc2ccccc21)NCCCN1CCOCC1`, the inhibition was 6.3% (inactive). Consider `COc1ccccc1CNc1nc(NCc2ccc(C(C)C)cc2)c2sccc2n1`, for which the inhibition was -50.7% (inactive). `Cc1cc(N2CCN(c3nc(-c4ccc([N+](=O)[O-])cc4)cs3)CC2)c2ccccc2n1`: the inhibition is -81.1% (inactive). Consider `CC1=NOC(=O)/C1=C/c1ccc(-c2ccc(Cl)cc2)o1`, for which the inhibition was -44% (inactive). The figure for `CC(C)(c1ccccc1)c1ccc(OCC(O)CNC2CCN(Cc3ccccc3)CC2)cc1` (configuration not stated) is -98.8% (inactive). The figure for `CCCCC[C@@H](C)N1C[C@H](COCc2ccccc2)Oc2cc(N3CC[C@@H](N(C)C)C3)ccc2S1(=O)=O` is -58.8% (inactive); for `CCCCC[C@@H](C)N1C[C@@H](COCc2ccccc2)Oc2cc(N3CC[C@@H](N(C)C)C3)ccc2S1(=O)=O` it is -3.7% (inactive). With `COc1ccc(-n2sc3ccccc3c2=O)cc1`, the inhibition was 0% (inactive). On to `Cc1ccc(Nc2nc(NCc3ccco3)c3ccccc3n2)cc1`, for which the inhibition is -25.2% (inactive). As to `O=C1CC(Sc2nnnn2-c2ccccc2)C(=O)N1c1cccc(Cl)c1` (configuration not stated), the inhibition is -30.8% (inactive).

With `CC1=C(C)CS(=O)N(S(=O)(=O)c2ccc(Cl)cc2)C1` (configuration not stated), the inhibition was -41.1% (inactive). As for `O=CNc1cc(-c2ccsc2)cn2c(-c3ccccc3)cnc12`, the inhibition is -35.4% (inactive). The figure for `CCCCC[C@@H](C)N1C[C@@H](COCc2ccccc2)Oc2cc(N3CC[C@H](N(C)C)C3)ccc2S1(=O)=O` is -45.9% (inactive); for `CN(C)CCNC(=O)c1ccc(-c2cn3c(-c4ccc(Oc5ccccc5)cc4)cnc3cn2)cc1` it is 5.3% (inactive). Consider `O=C(Cn1sc2ccccc2c1=O)NC12CC3CC(CC(C3)C1)C2`, for which the inhibition is -7.9% (inactive). As for `CCN(CC)CCCNc1ccc(-c2nnc(-c3ccc(OCC(C)C)cc3)o2)cn1`, the inhibition was -94.2% (inactive). Turning to `CCOC(=O)c1c(NC(=O)COc2ccccc2OCC)sc2c1CC(C)(C)NC2(C)C`, the inhibition is -9.9% (inactive).

Take `O=c1c2ccccc2sn1-c1ccccc1`: the inhibition is -24.9% (inactive).
